Assay results: paper PMC3250956, “Functional characterization and analgesic effects of mixed cannabinoid receptor/T-type channel ligands” (Molecular Pain, 2011)
Where two headings read alike, the source gives them in different places.

Assays:
[1] = target: T1, Rat CB1 (Rattus norvegicus, UniProt P20272); experiment: Radioligand competitive binding, [3H]CP55940, rat brain homogenate; details: for Ki: NA: not active at 1 μM, read-out: Mean Ki Rat CB1; for Rat CB1 (%) primary radioligand competitive binding: ligand 10 μM, rat brain homogenates
T1 construct: membrane fractions prepared from rat brain homogenate expressing CB1 receptor; from tissue; host or cells: rat brain homogenate
Description: (§1) CB1 and CB2 radioligand binding data were obtained using National Institute of Mental Health (NIMH) Psychoactive Drug Screening Program (PDSP) resources as described earlier. Compounds were screened in a competitive binding experiment using, respectively, membrane fractions prepared from rat brain homogenate expressing CB1 receptor and HEK293 cells expressing the human CB2 receptor. Experiments were conducted at a range of different concentrations and in duplicate. The competition binding experiment for CB1 and CB2 was performed in 96 well plates containing Standard Binding Buffer (50 mM Tris HCl, 1 mM EDTA, 3 mM MgCl2, 5 mg/ml fatty acid-free BSA, pH 7.4). The radioligand was [^3H]CP55940, and the reference compound was CP55940. A solution of the compound to be tested was prepared as a 1 mg/ml stock in DMSO and then diluted in Standard Binding Buffer by serial dilution. Radioligand was diluted to five times the assay concentration in Standard Binding Buffer. Aliquots (50 μl) of radioligand were dispensed into the wells of a 96-well plate containing 100 μl of Standard Binding Buffer. Then, duplicate 50-μl aliquots of the test and reference compound dilutions were added. Finally, crude membrane fractions of cells were resuspended in 3 ml of chilled Standard Binding Buffer and homogenized by several passages through a 26 gauge needle, then 50 μl were dispensed into each well. The 250-μl reactions were incubated at room temperature for 1.5 hours, and then harvested by rapid filtration onto Whatman GF/B glass fiber filters pre-soaked with 0.3% polyethyleneimine using a 96-well Brandel harverster. Four rapid 500-μl washes were performed. Filters were placed in 6-ml scintillation tubes and allowed to dry overnight. Bound radioactivity was harvested onto 0.3% polyethyleneimine-treated, 96-well filter mats using a 96-well Filtermate harvester. The filter mats were dried, then scintillant was melted onto the filters and the radioactivity retained on the filters counted in a Microbeta scintillation counter. Raw data (dpm) representing total radioligand binding (i.e., specific + non-specific binding) were plotted as a function of the logarithm of the molar concentration of the competitor (i.e., test or reference compound). Non-linear regression of the normalized (i.e., percent radioligand binding compared to that observed in the absence of test or reference compound) raw data was performed in Prism 4.0 (GraphPad Software) using the built-in three parameter logistic model describing ligand competition binding to radioligand-labeled sites: y = bottom + [(top-bottom)/(1 + 10 × -logIC50)] where bottom equals the residual radioligand binding measured in the presence of 10 μM reference compound (i.e., non-specific binding) and top equals the total radioligand binding observed in the absence of competitor. The log IC50 (i.e., the log of the ligand concentration that reduces radioligand binding by 50%) is thus estimated from the data and used to obtain the Ki by applying the Cheng-Prusoff approximation: Ki = IC50/(1 + [ligand]/KD) where [ligand] equals the assay radioligand concentration and KD equals the affinity constant of the radioligand for the target receptor.

[2] = target: T2, rat 5-HT2C (Rattus norvegicus, UniProt P08909); experiment: Primary radioligand competitive binding assay, [3H]mesulergine; details: ligand 10 μM, HEK293 cells
T2 construct: expressed in transfected cells; host or cells: HEK293 (Flp-In system, pcDNA5.0FRT)
T2 sequence (P08909 33-460): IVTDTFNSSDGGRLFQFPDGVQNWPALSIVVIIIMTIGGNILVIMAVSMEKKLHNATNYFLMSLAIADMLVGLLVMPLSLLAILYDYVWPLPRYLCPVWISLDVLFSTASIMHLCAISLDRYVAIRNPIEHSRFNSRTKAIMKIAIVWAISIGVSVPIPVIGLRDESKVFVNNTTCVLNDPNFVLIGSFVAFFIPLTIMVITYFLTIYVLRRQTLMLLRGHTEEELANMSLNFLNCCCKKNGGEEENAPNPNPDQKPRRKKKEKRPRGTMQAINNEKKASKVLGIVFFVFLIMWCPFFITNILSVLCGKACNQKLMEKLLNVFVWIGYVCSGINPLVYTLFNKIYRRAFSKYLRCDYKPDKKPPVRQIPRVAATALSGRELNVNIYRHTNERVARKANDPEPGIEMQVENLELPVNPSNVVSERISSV
Description: (§2) HEK293 cells and CHO cells were used in the radioligand binding assay while tsA-201 cells were used in the electrophysiological study. Human CB2, human 5-HT2A, rat 5-HT2C used in the binding studies were cloned into pcDNA5.0FRT and cell lines were made using the FlpIn system from Invitrogen. tsA-201 cell culture and transient calcium channel transfection were performed as described previously. In brief, tsA-201 cells were transfected using the calcium phosphate method. Cav3.1, 3.2 and 3.3 α1 subunits were transfected individually with yellow fluorescent protein as a transfection marker.
(§3) Radioligand binding data were obtained using National Institute of Mental Health's Psychoactive Drug Screening Program (NIMH/PDSP) using the same protocol described for CB1 and CB2 binding experiments. Transfected HEK293 (human 5-HT2A or rat 5-HT2C) cells were used. The radioligands were [^3H]ketanserin (0.5 nM) and [^3H]mesulergine (0.5 nM) for respectively 5-HT2A and 5-HT2C experiments. Non-specific binding was determined in the presence of 10 μM chlorpromazine for both 5-HT2A and 5-HT2C binding experiments. Cells were harvested and homogenized in 50 mM Tris HCl, 10 mM MgCl2, 0.1 mM EDTA, pH 7.4. Incubation of radioreceptor binding assay mixtures was 1.5 hours at room temperature in the dark.

[3] = target: T3, human 5-HT2A (Homo sapiens, UniProt P28223); experiment: Primary radioligand competitive binding assay, [3H]ketanserin; details: ligand 10 μM, HEK293 cells
T3 construct: expressed in transfected cells; host or cells: HEK293 (Flp-In system, pcDNA5.0FRT)
Description: as §2, §3

[4] = target: T4, Human CB2 (Homo sapiens, UniProt P34972); experiment: Radioligand competitive binding, [3H]CP55940, HEK293 cells; set-up: expressed in transfected cells; details: for Ki: NA: not active at 1 μM, read-out: Mean Ki Human CB2; for Human CB2 (%) primary radioligand competitive binding: ligand 10 μM, HEK293 cells
Description: as §2, §1

[5] = target: Human CB1 (Homo sapiens, UniProt P21554); experiment: GTPγ[35S] functional assay, CHO cell membrane extracts; set-up: Emax: dose or concentration left out as unconfirmed
[6] = target: T4, Human CB2; experiment: as above; format: biochemical; set-up: expressed in transfected cells; host or cells: CHO cells (membrane extracts); details: for Emax: read-out: GTPγ[35S] functional assays Human CB2 Emax
[7] = system: formalin-induced pain; experiment: Formalin test (formalin-induced nociception); format: in vivo, mice
Description: All experiments were conducted following the protocol approved by the Institutional Animal Care and Use Committee (protocol #M09130) and all efforts were made to minimize animal suffering. Male mice of C57BL/6J strain weighing 25~30 g, 10 weeks old were used. Animals were housed at a maximum number of five per cage (30 × 20 × 15 cm) with food and water ad libitum. They were kept in 12 h light/dark cycles (lights on at 7:00 a.m.) at a temperature of 23 ± 1°C. All manipulations were carried out between 11:00 am and 3:00 pm. […] Control animals received the same vehicle used to dilute the compounds. When drugs were delivered by intraperitoneal (i.p.) route, a constant volume of 10 ml/kg body weight was injected. When drugs were administered by intrathecal (i.t.) or intraplantar (i.pl.) routes, respectively volumes of 5 μl or 20 μl were injected. Appropriate vehicle-treated groups were also assessed simultaneously.
The formalin test is a widely used model that allows us to evaluate two different types of pain: neurogenic pain (phase 1) is caused by direct activation of nociceptive nerve terminals, while inflammatory pain (phase 2) is mediated by a combination of peripheral input and spinal cord sensitization. Animals received 20 μl of a formalin solution (1.25%) made up in PBS injected intraplantarly (i.pl.) in the ventral surface of the right hindpaw. Following i.pl. injection of formalin, the animals were immediately placed individually into observation chambers and the time spent licking or biting the injected paw was be recorded and considered as nociceptive response. We observed animals individually from 0-5 min (neurogenic phase) and 15-30 min (inflammatory phase).
Intrathecal injections were given to fully conscious mice using the method previously described by Hylden and Wilcox. Briefly, the animals were manually restrained, and a 30-gauge needle connected by a polyethylene tube to a 25 μl Hamilton syringe (Hamilton, Birmingham, UK) was inserted through the skin and between the vertebrae into the […] space of the L5-L6 spinal segments. Intrathecal injections were given over a period of 5 seconds.

[8] = system: locomotor activity; experiment: Open-field test; format: in vivo, mice; details: 1 mg/kg i.p., 30 minutes before the experiment; data not shown
Source text: We then delivered NMP-7 via the intrperitoneal route.

[9] = target: T5, Cav3.2 (Homo sapiens, UniProt O95180); experiment: Whole-cell patch-clamp on Cav3.2: concentration-response and steady-state inactivation; format: cell-based; details: 10 μM
T5 construct: expressed in transfected cells; host or cells: tsA-201 cells, transient calcium phosphate transfection
Description: To further characterize compounds NMP-4, NMP-7 and NMP-144, we investigated the concentration dependence of their action on Cav3.2, the major T-type calcium channel subtype implicated in the afferent pain pathway (Figure 2B, C).
To determine whether these compounds also affected inactivated channels, we recorded steady-state inactivation curves prior and after application of NMP-4, NMP-7 or NMP-144.
Whole-cell currents were recorded from tsa-201 cells 2-4 days after transfection. The external recording solution contained (in mM): BaCl2 (20), MgCl2 (1), HEPES (10), TEA-Cl (40), CsCl (65), d-glucose (10) and pH 7.2 adjusted with TEA-OH. The internal pipette solution was composed of (in mM) Cs-methanesulfonate (108), MgCl2 (4), EGTA (9), HEPES (9) and pH 7.2 adjusted with CsOH. The internal solution was supplemented with 0.6 mM GTP (sodium salt) and 2 mM ATP (tris salt), which were added directly to the internal solution immediately prior to use. Pipettes with a resistance of 2~5 MΩ when filled with internal solution were used for recording. Currents were elicited from a holding potential of -100 mV and were measured by conventional whole-cell patch clamp using an Axopatch 200B amplifier in combination with Clampex 9.2 software (Axon Instruments, Foster City, CA). Data were filtered at 1 kHz (8-pole Bessel) and digitized at 10 kHz with a Digidata 1320 (Axon Instruments, Foster City, CA). Series resistance were compensated by 85% in all experiments. An online P/4 programme was used to subtract the leak currents. Drugs were dissolved in DMSO at the following stock concentrations: 20 mM for NMP-4 and NMP-7, and 10 mM for NMP-139, NMP-140, NMP-141 and NMP-144. Prior to the experiment, drugs were diluted into external recording solution with a final DMSO concentration no higher than 0.3%. DMSO was also included in the control solution. Drug delivery was controlled by a Valvelink8.2 fast perfusion system (Automate Scientific Inc., Berkeley, CA). The perfusion tip was positioned a few hundred microns from the cell and kept as constant as possible throughout the experiments. Electrophysiological data were analyzed using Clampfit 9.2 (Axon Instruments, Foster City, CA) and GraphPad Prism 5 software (GraphPad Software Inc., San Diego, CA). […] Steady-state inactivation curves were fitted using the Boltzmann equation: I = 1/(1 + e ^(V-Vh)/k), where Vh is the half inactivating potential and k is the slope factor.

[10] = system: T-type calcium channels (Cav3.1, Cav3.2, Cav3.3); experiment: Whole-cell patch-clamp screen on recombinant T-type calcium channels in tsA-201 cells; format: cell-based, human; details: 10 μM; held at -100 mV, pulse to -20 mV; barium current; three Cav3 isoforms
Source text: Studies have shown that several endocannabinoids and phytocannabinoids have direct inhibitory actions on T-type voltage-gated calcium channels. To determine whether the NMP compounds produced a similar effect, we characterized their actions on transiently expressed T-type calcium channels via whole-cell patch-clamp recordings. Cells were held at -100 mV and barium current was evoked by a depolarizing pulse to -20 mV.
as §2, with “Cav3.1, 3.2 and 3.3 α1 subunits were transfected individually with yellow fluorescent protein as a transfection marker.” left out
Whole-cell currents were recorded from tsa-201 cells 2-4 days after transfection. […] Currents were elicited from a holding potential of -100 mV and were measured by conventional whole-cell patch clamp using an Axopatch 200B amplifier in combination with Clampex 9.2 software (Axon Instruments, Foster City, CA). […] Electrophysiological data were analyzed using Clampfit 9.2 (Axon Instruments, Foster City, CA) and GraphPad Prism 5 software (GraphPad Software Inc., San Diego, CA). […]

[11] = 1 mg/kg i.p., 30 min before behavioural assessment
[12] = i.t., 10 min prior, NMP-4 1-10 μg/i.t., NMP-144 0.1-1 μg/i.t., NMP-7 3-30 μg/i.t., mice

T1 sequence (P20272 whole entry): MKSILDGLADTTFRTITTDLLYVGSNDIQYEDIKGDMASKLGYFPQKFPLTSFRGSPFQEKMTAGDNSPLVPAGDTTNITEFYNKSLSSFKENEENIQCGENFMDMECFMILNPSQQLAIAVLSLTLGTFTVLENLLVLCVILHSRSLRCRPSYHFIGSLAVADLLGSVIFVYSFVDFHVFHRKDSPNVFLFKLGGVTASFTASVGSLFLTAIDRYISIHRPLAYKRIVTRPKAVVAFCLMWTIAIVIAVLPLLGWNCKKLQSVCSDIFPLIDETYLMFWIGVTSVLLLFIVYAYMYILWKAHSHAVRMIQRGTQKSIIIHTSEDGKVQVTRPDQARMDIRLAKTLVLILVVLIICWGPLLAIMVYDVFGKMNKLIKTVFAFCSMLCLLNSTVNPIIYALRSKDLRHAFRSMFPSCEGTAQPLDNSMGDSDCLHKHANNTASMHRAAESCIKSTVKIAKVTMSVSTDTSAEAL
T3 sequence (P28223 whole entry): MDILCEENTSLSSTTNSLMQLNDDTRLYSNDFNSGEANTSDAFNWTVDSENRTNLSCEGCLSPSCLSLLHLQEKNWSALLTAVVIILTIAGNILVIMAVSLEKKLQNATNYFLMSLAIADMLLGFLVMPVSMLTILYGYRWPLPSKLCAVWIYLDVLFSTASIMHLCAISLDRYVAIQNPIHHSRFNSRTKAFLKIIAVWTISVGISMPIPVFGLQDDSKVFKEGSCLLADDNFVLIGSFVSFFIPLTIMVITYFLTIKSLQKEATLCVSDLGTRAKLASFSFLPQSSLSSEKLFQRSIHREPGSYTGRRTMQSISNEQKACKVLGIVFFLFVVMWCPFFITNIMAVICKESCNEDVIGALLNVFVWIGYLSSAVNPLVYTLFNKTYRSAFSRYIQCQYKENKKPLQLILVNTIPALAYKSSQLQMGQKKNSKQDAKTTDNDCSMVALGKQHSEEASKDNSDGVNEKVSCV
Sequence of Human CB1 (P21554 whole entry): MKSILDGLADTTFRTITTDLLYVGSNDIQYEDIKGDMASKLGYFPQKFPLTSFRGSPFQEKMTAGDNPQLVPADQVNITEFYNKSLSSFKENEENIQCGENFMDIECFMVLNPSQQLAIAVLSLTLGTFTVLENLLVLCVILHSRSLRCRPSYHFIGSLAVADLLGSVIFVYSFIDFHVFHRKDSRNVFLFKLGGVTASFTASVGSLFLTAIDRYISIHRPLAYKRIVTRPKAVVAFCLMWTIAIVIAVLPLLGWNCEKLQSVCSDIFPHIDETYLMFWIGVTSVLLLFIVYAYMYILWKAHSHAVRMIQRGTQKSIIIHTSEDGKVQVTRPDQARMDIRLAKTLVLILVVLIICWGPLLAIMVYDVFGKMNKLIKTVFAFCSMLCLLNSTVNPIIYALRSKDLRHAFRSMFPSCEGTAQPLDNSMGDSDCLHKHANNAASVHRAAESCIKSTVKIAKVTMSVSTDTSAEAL
T4 sequence (P34972 whole entry): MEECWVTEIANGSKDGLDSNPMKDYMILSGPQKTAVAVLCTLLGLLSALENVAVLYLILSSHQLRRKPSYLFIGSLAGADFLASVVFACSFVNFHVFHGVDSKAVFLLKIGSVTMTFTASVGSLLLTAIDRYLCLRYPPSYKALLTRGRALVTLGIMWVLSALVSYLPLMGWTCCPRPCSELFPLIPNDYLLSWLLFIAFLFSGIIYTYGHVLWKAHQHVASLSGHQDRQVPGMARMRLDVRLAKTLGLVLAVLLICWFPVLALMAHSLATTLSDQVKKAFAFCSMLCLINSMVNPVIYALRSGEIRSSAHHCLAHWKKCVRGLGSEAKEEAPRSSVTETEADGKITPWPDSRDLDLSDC
T5 sequence (O95180 whole entry): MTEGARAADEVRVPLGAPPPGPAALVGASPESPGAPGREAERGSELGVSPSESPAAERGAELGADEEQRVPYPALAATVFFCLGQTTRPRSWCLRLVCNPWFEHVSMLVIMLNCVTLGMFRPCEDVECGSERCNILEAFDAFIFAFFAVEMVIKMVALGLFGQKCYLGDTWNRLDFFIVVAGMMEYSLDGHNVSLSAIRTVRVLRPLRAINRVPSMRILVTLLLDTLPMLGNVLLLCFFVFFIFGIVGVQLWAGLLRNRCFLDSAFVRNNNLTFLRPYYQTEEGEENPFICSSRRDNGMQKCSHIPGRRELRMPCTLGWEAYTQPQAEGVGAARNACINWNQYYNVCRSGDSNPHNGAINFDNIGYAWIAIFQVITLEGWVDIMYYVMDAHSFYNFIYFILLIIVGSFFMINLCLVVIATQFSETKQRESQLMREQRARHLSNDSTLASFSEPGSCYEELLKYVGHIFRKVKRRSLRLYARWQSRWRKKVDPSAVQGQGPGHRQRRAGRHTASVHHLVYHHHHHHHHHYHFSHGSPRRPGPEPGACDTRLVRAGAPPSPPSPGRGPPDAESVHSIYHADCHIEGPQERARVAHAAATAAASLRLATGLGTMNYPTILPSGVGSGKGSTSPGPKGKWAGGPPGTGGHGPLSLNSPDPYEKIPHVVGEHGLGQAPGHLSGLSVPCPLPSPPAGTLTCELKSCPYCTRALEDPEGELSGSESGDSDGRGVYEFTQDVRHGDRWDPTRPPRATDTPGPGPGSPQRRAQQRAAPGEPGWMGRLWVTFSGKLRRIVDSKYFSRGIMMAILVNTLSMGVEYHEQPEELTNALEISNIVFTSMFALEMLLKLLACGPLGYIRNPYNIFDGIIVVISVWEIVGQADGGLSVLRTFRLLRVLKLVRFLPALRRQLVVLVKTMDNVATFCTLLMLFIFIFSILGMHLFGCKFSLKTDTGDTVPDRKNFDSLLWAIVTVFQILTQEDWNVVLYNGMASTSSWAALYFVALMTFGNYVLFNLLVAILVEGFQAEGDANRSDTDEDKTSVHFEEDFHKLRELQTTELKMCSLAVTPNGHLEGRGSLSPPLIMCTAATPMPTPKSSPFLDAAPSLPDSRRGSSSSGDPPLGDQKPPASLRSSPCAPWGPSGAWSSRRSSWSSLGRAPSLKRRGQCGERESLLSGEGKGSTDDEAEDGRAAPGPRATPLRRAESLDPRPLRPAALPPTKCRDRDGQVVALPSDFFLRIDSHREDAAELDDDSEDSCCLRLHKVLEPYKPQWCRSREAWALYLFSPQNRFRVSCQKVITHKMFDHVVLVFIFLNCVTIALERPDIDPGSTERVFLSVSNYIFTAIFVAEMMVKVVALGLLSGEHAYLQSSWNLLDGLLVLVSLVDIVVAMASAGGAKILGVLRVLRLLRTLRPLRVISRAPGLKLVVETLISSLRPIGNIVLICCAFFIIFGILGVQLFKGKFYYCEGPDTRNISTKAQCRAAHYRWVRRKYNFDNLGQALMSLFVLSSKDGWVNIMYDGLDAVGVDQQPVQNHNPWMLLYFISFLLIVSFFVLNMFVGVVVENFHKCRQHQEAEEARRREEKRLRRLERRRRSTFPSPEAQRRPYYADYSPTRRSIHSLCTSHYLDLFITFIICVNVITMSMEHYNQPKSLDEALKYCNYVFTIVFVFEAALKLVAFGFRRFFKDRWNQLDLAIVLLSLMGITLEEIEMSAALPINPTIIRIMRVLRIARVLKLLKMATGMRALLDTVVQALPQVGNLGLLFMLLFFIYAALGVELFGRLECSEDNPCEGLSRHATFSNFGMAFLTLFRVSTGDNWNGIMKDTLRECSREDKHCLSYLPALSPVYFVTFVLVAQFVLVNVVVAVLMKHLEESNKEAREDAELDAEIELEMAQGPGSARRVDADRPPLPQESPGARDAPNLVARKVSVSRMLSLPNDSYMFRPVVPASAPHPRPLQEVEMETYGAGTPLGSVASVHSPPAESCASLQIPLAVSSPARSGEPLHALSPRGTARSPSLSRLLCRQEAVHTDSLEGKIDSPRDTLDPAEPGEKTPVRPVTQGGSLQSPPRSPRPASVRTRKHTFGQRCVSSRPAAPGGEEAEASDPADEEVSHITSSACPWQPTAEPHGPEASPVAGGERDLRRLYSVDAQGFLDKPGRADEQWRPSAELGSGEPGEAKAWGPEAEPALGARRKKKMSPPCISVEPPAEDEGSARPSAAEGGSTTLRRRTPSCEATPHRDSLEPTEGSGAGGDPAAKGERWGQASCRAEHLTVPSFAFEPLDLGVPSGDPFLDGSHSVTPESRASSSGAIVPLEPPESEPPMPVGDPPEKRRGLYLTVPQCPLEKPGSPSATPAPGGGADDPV

| Structure (SMILES) | Ki [1] [nM] | Rat CB1 (%) primary radioligand competitive binding [1] [%] | Rat 5-HT2C (%) primary radioligand competitive binding [2] [%] | Human 5-HT2A (%) primary radioligand competitive binding [3] [%] | Ki [4] [nM] | Human CB2 (%) primary radioligand competitive binding [4] [%] | Emax [6] [%] | further results |
| --- | --- | --- | --- | --- | --- | --- | --- | --- |
| CCCCCn1c2c(c3ccccc31)C[C@H](C(=O)N1CCCCC1)NC2 [NMP-140] | 1250 ± 290 | 79.3 | -4.2 | 11.2 | 2870 ± 515 | 71.1 | – | – |
| CCCCCn1c2c(c3ccccc31)C[C@@H](C(=O)N1CCCCC1)NC2 [NMP-141] | 906 ± 211 | 88.6 | -8.4 | 11.9 | 481 ± 52.9 | 88.7 | 51.9 | GTPγ[35S] functional assays Human CB1 EC50 ([5]; NA: not active at 1 μM): did not show any agonistic or antagonistic activities; EC50 ([6]; read-out: GTPγ[35S] functional assays Human CB2 EC50): 112 ± 3.3 nM |
| CCCCCn1c2ccccc2c2cc(C(=O)N3CCCCC3)ccc21 [NMP-7] | – | – | – | – | – | – | 30.8 | inhibition of the pain responses in phase 1 [7, 11]: 92 ± 7%; inhibition of the pain responses in phase 2 [7, 11]: 94 ± 6%; effect on first phase of formalin-induced nociception ([7]; i.pl., co-injected with formalin, NMP-4 and NMP-144 0.03-3 μg/paw, NMP-7 0.3-3 μg/i.pl.): able to inhibit the first phase; reduction of pain response time, first (neurogenic) phase [7, 12]: significant inhibition; reduction of pain response time, second (inflammatory) phase [7, 12]: significant inhibition; EC50 [5]: 96.9 ± 11.9 nM; Emax ([5]; read-out: GTPγ[35S] functional assays Human CB1 Emax): 73.6%; locomotor activity in the open-field test [8]: did not alter locomotor activity; EC50 [6]: 10.5 ± 1.8 nM; hyperpolarizing shift in the half inactivation potential of Cav3.2 channels [9]: 13 mV; half-inactivation potential after treatment with drug ([9]; n = 4): -63.3 ± 3.5 mV |
| CCCCCn1c2ccccc2c2cc(C(=O)NCCc3ccc(Cl)cc3)ccc21 [NMP-139] | – | 46.3 | -7.8 | 7.7 | 3590 ± 424 | – | – | inhibition of T-type current [10]: < 20% |
